As a reminder, the IC50 is the concentration that inhibits the measured activity by half.

IC50 data for 22 molecules are collected here from patent US9067934B2, “Bicyclic pyridinones” (Pfizer Inc., priority 2011, dated 2015).

Where a name gives a salt, the structure may show the parent alone.

The assay relates to production of amyloid beta protein Aβ(1-42) (γ-secretase) in human WT-APP overexpressing CHO cells. Briefly: Cell-Based γ-Secretase Assay with ELISA Readout. As to conditions: human WT-APP overexpressing CHO cells, ~24 hours at 37° C., Aβ(1-42) ELISA; footnotes: a = geometric mean of >15 determinations, b = single determination, c = geometric mean of 7-15 determinations; read-out: Aβ 42B IC50 (Geometric Mean of 2-6 Determinations). The method, then:
Cell-Based γ-Secretase Assay with ELISA Readout
The ability of compounds to modulate production of amyloid beta protein Aβ(1-42) was determined using human WT-APP overexpressing CHO cells. Cells were plated at 22,000 cells/100 μL well in 96 well tissue culture treated, clear plates (Falcon) in DMEM/F12 based medium and incubated for 24 hours at 37° C. Compounds for testing were diluted in 100% DMSO to achieve an eleven points, half log, dose response for IC50 determinations. Compounds were added in fresh medium to achieve 1% final DMSO. Appropriate vehicle or inhibitor controls were added into control wells individually to obtain minimum or maximum inhibition values, respectively, for the assay signal window before the plates were incubated for ˜24 hours at 37° C. This procedure produces conditioned media in each well which is tested for Aβ(1-42) levels in the ELISA detection step described next. The remaining cell cultures in each well are also tested for cell toxicity as described below.
Coating of ELISA assay plates was initiated by addition of 50 μL/well of an in-house Aβ(1-42) specific antibody at (3 μg/mL) in 0.1 M NaHCO3 (pH 9.0) into black 384-well Maxisorp® plates (Nunc) and incubated overnight at 4° C. The capture antibody was then aspirated from the ELISA assay plates and plates were washed 4×100 μL with Wash Buffer (Dulbecco's PBS, 0.05% Tween 20). 90 μL/well of Blocking Buffer (Dulbecco's PBS, 1.0% BSA (Sigma A7030)) was then added to plates. Ambient temperature incubation was allowed to proceed for a minimum of two hours. Blocking buffer was then removed and 20 μL/well Assay Buffer (Dulbecco's PBS, 1.0% BSA (Sigma A7030), 0.05% Tween 20) was then added. At this point, 40 μL (in duplicate) of experimental conditioned media (described above) were transferred into wells of the blocked ELISA plates containing the capture antibody, followed by overnight incubation at 4° C. Cell toxicity was also measured in the corresponding remaining cells after removal of the conditioned media for the Aβ(1-42) assay by a colorimetric cell proliferation assay (CellTiter 96® AQueous One Solution Cell Proliferation Assay, Promega) according to the manufacturer's instructions.
After overnight incubation of the ELISA assay plates at 4° C., unbound Aβ peptides were removed via (4×100 μL) washes with Wash Buffer. Europium (Eu) labeled (custom labeled, Perkin Elmer) Aβ(1-16) 6e10 Monoclonal Antibody (Covance #SIG-39320) was added, (50 μL/well Eu-6e10 @ 1:10,000, 20 uM EDTA) in Assay Buffer. Incubation at ambient temperature for a minimum of 2 hours was followed by (4×100 μL) washes with Wash Buffer, before 30 μL/well of Delfia Enhancement Solution (Perkin Elmer) was added. Following an one hour ambient temperature incubation, the plates were read on an EnVision plate reader (Perkin Elmer) using standard DELFIA TRF settings. Data analysis including inhibitory IC50 determination was performed using nonlinear regression fit analysis (in-house software) and the appropriate plate mean values for the maximum and minimum inhibition controls.
On to `Cc1cn(-c2ccc3n(c2=O)CCN(C(C)C(C)Oc2ccccc2S(F)(F)(F)(F)F)C3=O)cn1` (stereo not shown) [Example 123, 7-(4-methyl-1H-imidazol-1-yl)-2-{3-[2-(pentafluoro-λ^6-sulfanyl)phenoxy]butan-2-yl}-3,4-dihydro-2H-pyrido[1,2-a]pyrazine-1,6-dione], for which the IC50 is 106 nM.
On to `Cc1cn(-c2ccc3n(c2=O)CCN(CCOc2ncc(F)cc2-c2csc(C(F)(F)F)n2)C3=O)cn1` [Example 75, 2-[2-({5-fluoro-3-[2-(trifluoromethyl)-1,3-thiazol-4-yl]pyridin-2-yl}oxy)ethyl]-7-(4-methyl-1H-imidazol-1-yl)-3,4-dihydro-2H-pyrido[1,2-a]pyrazine-1,6-dione], for which the IC50 was found to be 62.3 nM.
Turning to `Cc1cn(-c2ccc3n(c2=O)CCN(CCOc2ccccc2-c2cc(C(F)(F)F)on2)C3=O)cn1` [Example 39, 7-(4-methyl-1H-imidazol-1-yl)-2-(2-{2-[5-(trifluoromethyl)isoxazol-3-yl]phenoxy}ethyl)-3,4-dihydro-2H-pyrido[1,2-a]pyrazine-1,6-dione, trifluoroacetate salt], the IC50 is 525 nM.
Consider `Cc1cn(-c2ccc3n(c2=O)CCN(CCOc2cccc4ccccc24)C3=O)cn1` [Example 3, 7-(4-methyl-1H-imidazol-1-yl)-2-[2-(1-naphthyloxy)ethyl]-3,4-dihydro-2H-pyrido[1,2-a]pyrazine-1,6-dione], for which the half-maximal inhibitory concentration (IC50) is 86 nM.
The value for `Cc1cn(-c2ccc3n(c2=O)CCN(CCOc2ccccc2-c2ccc(Cl)cc2)C3=O)cn1` [Example 94, 2-{2-[(4′-chlorobiphenyl-2-yl)oxy]ethyl}-7-(4-methyl-1H-imidazol-1-yl)-3,4-dihydro-2H-pyrido[1,2-a]pyrazine-1,6-dione, formate salt] was 108 nM; that for `Cc1cn(-c2ccc3n(c2=O)CCN(CCOc2ccccc2C2CCC2)C3=O)cn1` [Example 25, 2-[2-(2-cyclobutylphenoxy)ethyl]-7-(4-methyl-1H-imidazol-1-yl)-3,4-dihydro-2H-pyrido[1,2-a]pyrazine-1,6-dione] was 73.2 nM; that for `Cc1cn(-c2ccc3n(c2=O)CCN([C@@H](C)COc2ccc(Cl)cc2S(F)(F)(F)(F)F)C3=O)cn1` [Example 119, 2-{(2S)-1-[4-Chloro-2-(pentafluoro-λ^6-sulfanyl)phenoxy]propan-2-yl}-7-(4-methyl-1H-imidazol-1-yl)-3,4-dihydro-2H-pyrido[1,2-a]pyrazine-1,6-dione] was 7.49 nM.
As for `Cc1cn(-c2ccc3n(c2=O)CCN(CCOc2cccc4oc5ccccc5c24)C3=O)cn1` [Example 42, 2-[2-(dibenzo[b,d]furan-1-yloxy)ethyl]-7-(4-methyl-1H-imidazol-1-yl)-3,4-dihydro-2H-pyrido[1,2-a]pyrazine-1,6-dione, trifluoroacetate salt], the IC50 was determined as 5.31 nM.
Regarding `Cc1cn(-c2ccc3n(c2=O)CCN(CCOc2cccc(Cl)c2Cl)C3=O)cn1` [Example 33, 2-[2-(2,3-dichlorophenoxy)ethyl]-7-(4-methyl-1H-imidazol-1-yl)-3,4-dihydro-2H-pyrido[1,2-a]pyrazine-1,6-dione, trifluoroacetate salt], the IC50 is 194 nM.
Take `Cc1cn(-c2ccc3n(c2=O)CCN([C@@H](C)COc2ccc(Cl)cc2C(C)(C)C(F)(F)F)C3=O)cn1` [Example 117, 2-{(2S)-1-[4-Chloro-2-(1,1,1-trifluoro-2-methylpropan-2-yl)phenoxy]propan-2-yl}-7-(4-methyl-1H-imidazol-1-yl)-3,4-dihydro-2H-pyrido[1,2-a]pyrazine-1,6-dione]: the IC50 was 3.54 nM.
Turning to `Cc1cn(-c2ccc3n(c2=O)CCN(CCCOc2cc(C)c(Cl)c(C)c2)C3=O)cn1` [Example 28, 2-[3-(4-chloro-3,5-dimethylphenoxy)propyl]-7-(4-methyl-1H-imidazol-1-yl)-3,4-dihydro-2H-pyrido[1,2-a]pyrazine-1,6-dione], the IC50 worked out at 31.9 nM.
For the molecule `Cc1cn(-c2ccc3n(c2=O)CCN(CCOc2ccc(Cl)cc2-n2ccc(C(F)(F)F)n2)C3=O)cn1` [Example 50, 2-(2-{4-chloro-2-[3-(trifluoromethyl)-1H-pyrazol-1-yl]phenoxy}ethyl)-7-(4-methyl-1H-imidazol-1-yl)-3,4-dihydro-2H-pyrido[1,2-a]pyrazine-1,6-dione, trifluoroacetate salt], the 50% inhibitory concentration (IC50) was 29.3 nM.
As for `Cc1cn(-c2ccc3n(c2=O)CCN(CCOc2cc(Cl)c(Cl)cc2Cl)C3=O)cn1` [Example 30, 7-(4-methyl-1H-imidazol-1-yl)-2-[2-(2,4,5-trichlorophenoxy)ethyl]-3,4-dihydro-2H-pyrido[1,2-a]pyrazine-1,6-dione], the IC50 was determined as 132 nM.
`Cc1cn(-c2ccc3n(c2=O)CCN(CCOc2ccc(Cl)c(C(F)(F)F)c2)C3=O)cn1` [Example 12, 2-{2-[4-chloro-3-(trifluoromethyl)phenoxy]ethyl}-7-(4-methyl-1H-imidazol-1-yl)-3,4-dihydro-2H-pyrido[1,2-a]pyrazine-1,6-dione]: the half-maximal inhibitory concentration (IC50) worked out at 196 nM.
For `Cc1cn(-c2ccc3n(c2=O)CCN(CCOc2cccc4c2oc2ccccc24)C3=O)cn1` [Example 26, 2-[2-(dibenzo[b,d]furan-4-yloxy)ethyl]-7-(4-methyl-1H-imidazol-1-yl)-3,4-dihydro-2H-pyrido[1,2-a]pyrazine-1,6-dione], the IC50 was 95.7 nM.
With `Cc1cn(-c2ccc3n(c2=O)CCN(CCOc2cc(C(F)(F)F)nc4c(Cl)ccc(F)c24)C3=O)cn1` [Example 66, 2-(2-{[8-chloro-5-fluoro-2-(trifluoromethyl)quinolin-4-yl]oxy}ethyl)-7-(4-methyl-1H-imidazol-1-yl)-3,4-dihydro-2H-pyrido[1,2-a]pyrazine-1,6-dione], the IC50 amounted to 52.4 nM.
For `Cc1cn(-c2ccc3n(c2=O)CCN(CCOc2cccc(-n4ccc(C(F)(F)F)n4)c2)C3=O)cn1` [Example 81, 7-(4-methyl-1H-imidazol-1-yl)-2-(2-{3-[3-(trifluoromethyl)-1H-pyrazol-1-yl]phenoxy}ethyl)-3,4-dihydro-2H-pyrido[1,2-a]pyrazine-1,6-dione, trifluoroacetate salt], the IC50 turned out to be 384 nM.
In the case of `Cc1cn(-c2ccc3n(c2=O)CCN(CCOc2cnc(C(F)(F)F)c4ccccc24)C3=O)cn1` [Example 86, 7-(4-methyl-1H-imidazol-1-yl)-2-(2-{[1-(trifluoromethyl)isoquinolin-4-yl]oxy}ethyl)-3,4-dihydro-2H-pyrido[1,2-a]pyrazine-1,6-dione, trifluoroacetate salt], the concentration for half-maximal inhibition (IC50) is 107 nM.
In the case of `Cc1cn(-c2ccc3n(c2=O)CCN(CCOc2ccc(Cl)c4ccccc24)C3=O)cn1` [Example 6, 2-{2-[(4-chloro-1-naphthyl)oxy]ethyl}-7-(4-methyl-1H-imidazol-1-yl)-3,4-dihydro-2H-pyrido[1,2-a]pyrazine-1,6-dione], the half-inhibitory concentration (IC50) amounted to 36.5 nM.
For the molecule `Cc1cn(-c2ccc3n(c2=O)CCN(CCOc2cccc4cc(F)ccc24)C3=O)cn1` [Example 53, 2-{2-[(6-fluoro-1-naphthyl)oxy]ethyl}-7-(4-methyl-1H-imidazol-1-yl)-3,4-dihydro-2H-pyrido[1,2-a]pyrazine-1,6-dione, trifluoroacetate salt], the half-inhibitory concentration (IC50) stood at 26.2 nM.
As for `Cc1cccc(-c2ccccc2OCCN2CCn3c(ccc(-n4cnc(C)c4)c3=O)C2=O)c1` [Example 95, 2-{2-[(3′-methylbiphenyl-2-yl)oxy]ethyl}-7-(4-methyl-1H-imidazol-1-yl)-3,4-dihydro-2H-pyrido[1,2-a]pyrazine-1,6-dione, formate salt], the 50% inhibitory concentration (IC50) is 143 nM.
In the case of `Cc1cn(-c2ccc3n(c2=O)CCN(CCOc2cccc4c2c2ccccc2n4C)C3=O)cn1` [Example 71, 2-{2-[(9-methyl-9H-carbazol-4-yl)oxy]ethyl}-7-(4-methyl-1H-imidazol-1-yl)-3,4-dihydro-2H-pyrido[1,2-a]pyrazine-1,6-dione, trifluoroacetate salt], the IC50 was 4.22 nM.
